Laboratory results published in the METLIN SMRT retention time set (Domingo-Almenara et al. 2019).
Values belong to the molecule of their own block, whether it stands above or below them.

Experiment: gradient 5% acetonitrile 3 min, to 50% in 2 min, to 85% in 15 min, held 3 min, 100 µL/min
Settings: column: Zorbax Extend-C18 2.1 x 50 mm; eluents: water / acetonitrile, 0.1% formic acid
Procedure, shortened: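 Values are retention times taken from adduct peaks that software picked and an analyst inspected. The pure standards were run as mixtures of ~100 molecules on HPLC linked to a quadrupole time-of-flight mass spectrometer, in positive and negative ionization mode. A Zorbax Extend-C18 column (2.1 × 50 mm, 1.8 μm) was used at 100 μL/min with water and acetonitrile, each including 0.1% formic acid.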

RP-LC retention time: 1100 s
SMILES: COCCn1c(SCc2nc(-c3ccc(C)cc3)no2)nc2cc3c(cc2c1=O)OCO3

RP-LC retention time: 603 s
SMILES: O=C(CN1C(=O)C2CCCCC2C1=O)N1CCN(Cc2ccc3c(c2)OCO3)CC1 (stereo unspecified)

RP-LC retention time: 600 s
SMILES: Cc1ccccc1Cn1cc(-c2ccncc2)cc1C(=O)NC(C)c1ccccn1 (stereo unspecified)

RP-LC retention time: 932 s
SMILES: Cc1ccc(CNS(=O)(=O)c2ccc3c(c2)C(=O)N(C)c2ncccc2O3)cc1

RP-LC retention time: 599 s
SMILES: COc1ccc(-c2csc(CN3CCN(C(=O)C4CC4)CC3)n2)cc1

RP-LC retention time: 1030 s
SMILES: Cc1ccc(CNC(=O)Cn2cccc(-c3nc(-c4ccc(Br)cc4)no3)c2=O)cc1

RP-LC retention time: 708 s
SMILES: O=C(Nc1nnc(C2CC(=O)N(c3ccccc3)C2)o1)c1ccc(F)cc1 (stereo unspecified)

RP-LC retention time: 587 s
SMILES: Cc1nn(-c2cc(N3CCCC3)ncn2)c(C)c1CCC(=O)N1CCN(c2ccccn2)CC1

RP-LC retention time: 877 s
SMILES: Cc1cccc(OCC(=O)c2ccc3c(c2)N(C(C)C(=O)N2CCOCC2)C(=O)CO3)c1C (stereo unspecified)

RP-LC retention time: 729 s
SMILES: Cc1ccccc1CNC1=NCCNC12CCN(S(=O)(=O)c1ccccc1C)CC2

RP-LC retention time: 904 s
SMILES: CCn1cc(-c2nc(C)c(C(=O)NCc3cccc(OC)c3)s2)c2cccnc21

RP-LC retention time: 1110 s
SMILES: COc1ccccc1CCc1nc(C2CC(=O)N(c3ccc(F)c(Cl)c3)C2)no1 (stereo unspecified)

RP-LC retention time: 589 s
SMILES: CCC(=O)N1CCc2c(C(=O)N3CCN(c4ccccn4)CC3)cccc21

RP-LC retention time: 824 s
SMILES: Cc1noc(-c2cccc(OC3CN(C(=O)c4cccc5[nH]ccc45)C3)c2)n1

RP-LC retention time: 730 s
SMILES: O=C(CCn1cnc2cc(-c3noc(-c4ccccc4F)n3)ccc21)N1CCCC1

RP-LC retention time: 930 s
SMILES: Cc1ccc2c(c1)N(S(C)(=O)=O)CCC(C(=O)Nc1c(C)cccc1C)O2 (stereo unspecified)

RP-LC retention time: 859 s
SMILES: COc1ccc(-n2c(=O)n(C)c(=O)c3cc(C(=O)NCc4ccccc4OC)cnc32)cc1

RP-LC retention time: 889 s
SMILES: CC(C)C(=O)Nc1ccc(C2(C(=O)NCc3ccco3)CCCCC2)cc1

RP-LC retention time: 744 s
SMILES: Cn1nc(-c2nc(C3CC3)no2)c2c1CCN(C(=O)c1ccco1)C2

RP-LC retention time: 1010 s
SMILES: Cc1ccc(NC(=O)N2CCCC2c2nc(-c3cccc(F)c3)no2)cc1 (stereo unspecified)

RP-LC retention time: 716 s
SMILES: CCN1CCn2cc(S(=O)(=O)NCc3ccc(C)cc3)cc2C1=O

RP-LC retention time: 942 s
SMILES: CCOc1ccc(NC(=O)C(C)C2CCN(C(=O)Nc3ccc(Cl)cc3)CC2)cc1 (stereo unspecified)

RP-LC retention time: 934 s
SMILES: Cc1cc(C)cc(Nc2nc(C)cc(=O)n2CC(=O)Nc2cccc(Br)c2)c1

RP-LC retention time: 607 s
SMILES: CC(C)n1cnc2cc(CNC(=O)Cc3cccc(F)c3)ccc21

RP-LC retention time: 1070 s
SMILES: CCOC(=O)c1noc2nc(C)nc(N3CCN(c4ccccc4F)CC3)c12

RP-LC retention time: 653 s
SMILES: Cc1ccccc1NC(=O)C1C(=O)N(CCO)C2(C)CC1c1ccccc1O2 (stereo unspecified)

RP-LC retention time: 756 s
SMILES: COc1ccc(Br)cc1CNC(=O)CN1C(=O)CSc2ncccc21

RP-LC retention time: 889 s
SMILES: Cc1ccc(CNC(=O)c2cccc3c2CCN3C(=O)c2ccc(F)cc2)o1

RP-LC retention time: 708 s
SMILES: COc1ccc(-c2c(C)noc2NC(C)=O)cc1S(=O)(=O)Nc1cccc(C#N)c1

RP-LC retention time: 586 s
SMILES: Cc1cc(C)c2c(N3CCCC3)nc(C(=O)NC(C)c3ccccn3)nc2n1 (stereo unspecified)

RP-LC retention time: 1080 s
SMILES: COc1ccccc1-c1c(C(F)(F)F)oc2cc(OC(=O)C3CC3)ccc2c1=O

RP-LC retention time: 909 s
SMILES: Cc1c(C)n(C)c2ccc(C(=O)NCC(C)C)cc12

RP-LC retention time: 700 s
SMILES: Cn1c(N2CCCC(C(=O)Nc3ccc(F)cc3F)C2)cc(=O)n(C)c1=O (stereo unspecified)

RP-LC retention time: 1120 s
SMILES: COc1ccc(F)cc1S(=O)(=O)N1CCC(F)(c2nc(CC(C)C)no2)CC1

RP-LC retention time: 901 s
SMILES: Cc1ccn2cc(C(=O)N3CCN(c4ccccc4C)CC3)nc2c1

Second part, the molecule before the results:

SMILES: O=C(Nc1ccc(F)cc1F)C1(CCO)CCN(Cc2ccccc2)C1 (stereo unspecified)
RP-LC retention time: 620 s

SMILES: O=C(NCc1nnc(SCc2ccccn2)o1)c1ccccc1
RP-LC retention time: 586 s

SMILES: CCOC(=O)Cc1c(C)nc2c(-c3ccccc3)cnn2c1C
RP-LC retention time: 1000 s

SMILES: CCOc1ccc2ncc(C#N)c(NCc3ccc(OC)c(OC)c3)c2c1
RP-LC retention time: 663 s

SMILES: COCCN1C(=O)c2ccccc2C(C(=O)NCCc2c[nH]c3ccccc23)C12CCCC2 (stereo unspecified)
RP-LC retention time: 845 s

SMILES: CCn1nccc1C(=O)Nc1cnc(N2CCCCCC2)nc1
RP-LC retention time: 834 s

SMILES: Cc1noc([C@@H]2CC(F)(F)CN2C(=O)c2nccn2C)n1
RP-LC retention time: 701 s

SMILES: O=C(c1ccccc1)c1ccccc1C(=O)c1ccccc1
RP-LC retention time: 1090 s

SMILES: COc1ccc(OCC(=O)Nc2ccc(-c3nc(-c4ccc(OC)cc4)no3)cc2)cc1
RP-LC retention time: 1180 s

SMILES: Cc1sc(-c2noc(C3CC3)n2)cc1S(=O)(=O)N1CCC(C(=O)N2CCCCCC2)CC1
RP-LC retention time: 1050 s

SMILES: O=[N+]([O-])/C=C/c1cc2ccccc2[nH]1
RP-LC retention time: 718 s

SMILES: Cc1c(Cl)cccc1Nc1c(-c2ccc(N(C)C)cc2)nc2cnccn12
RP-LC retention time: 961 s

SMILES: O=c1ccc(-c2ccccc2F)nn1Cc1nc(-c2ccccc2Cl)no1
RP-LC retention time: 1020 s

SMILES: CC1CCC(NC(=O)c2nnn(Cc3ccc(F)cc3)c2-n2cccc2)CC1 (stereo unspecified)
RP-LC retention time: 1160 s

SMILES: CCCCNc1onc(-c2ccc(F)cc2)c1C(=O)OC
RP-LC retention time: 1130 s

SMILES: CCc1nc(-c2cccc(NC(=O)c3cncc(Br)c3)c2)no1
RP-LC retention time: 926 s

SMILES: COc1ccc(-n2c(=O)c3sccc3n(Cc3nc(-c4cccc(OC)c4)no3)c2=O)cc1
RP-LC retention time: 949 s

SMILES: CCCN(CC1CCOC1)C(=O)c1cc(F)cc(F)c1 (stereo unspecified)
RP-LC retention time: 808 s

SMILES: COc1ccc(Br)c(C(=O)Nc2nnc(Cc3ccc(F)cc3)o2)c1
RP-LC retention time: 774 s

SMILES: O=C1CC[C@]2(C(=O)N3CCCCC3)CCCC[C@H]2N1CCc1ccccc1
RP-LC retention time: 878 s

SMILES: CSc1ccc(CNC(=O)Cn2c(=O)c3cccn3c3ccc(F)cc32)cc1
RP-LC retention time: 861 s

SMILES: O=C(CSc1nccn1Cc1ccco1)Nc1ccccc1C(F)(F)F
RP-LC retention time: 637 s

SMILES: O=C(c1cc2c(s1)CCCC2)N1CCc2[nH]cnc2C12CCCCC2
RP-LC retention time: 692 s

SMILES: O=C(Nc1cnc(N2CCCCCC2)nc1)C1CC1
RP-LC retention time: 714 s

SMILES: N#Cc1ccc(Cn2cc(C(=O)C(N)=O)c3ccccc32)cc1
RP-LC retention time: 810 s

SMILES: CS(=O)(=O)N1CCC(C(=O)Nc2ccc3cn[nH]c3c2)CC1
RP-LC retention time: 588 s

SMILES: C=CCN(Cc1nc(-c2ccc(C)cc2)no1)C(=O)Nc1cccc(Cl)c1
RP-LC retention time: 1150 s

SMILES: Cc1ccc(Nc2nc(C(=O)NCCc3c(C)noc3C)nc3ccccc23)cc1
RP-LC retention time: 717 s

SMILES: CCCn1cc(CCNC(=O)c2cc(Cl)ccc2F)c2cccnc21
RP-LC retention time: 852 s

SMILES: CCc1nc(-c2ccc(-c3noc(COc4ccc(OC)cc4)n3)cc2)cs1
RP-LC retention time: 1270 s

SMILES: CCNc1cc(N2CCCC(CCC(=O)NCc3ccccc3OC)C2)ncn1 (stereo unspecified)
RP-LC retention time: 656 s

SMILES: Cc1ccc(CN2CC3(CCCCC3)CC2COc2ccncc2)nc1 (stereo unspecified)
RP-LC retention time: 615 s

SMILES: CCSc1ccccc1C(=O)NCC1CCN(S(=O)(=O)C2CC2)CC1
RP-LC retention time: 725 s

SMILES: CCc1ccc(-n2nnc(C(=O)N3CCCCC3C)c2-c2cccnc2)cc1 (stereo unspecified)
RP-LC retention time: 866 s

SMILES: Cn1nc(-c2nnc(-c3ccccc3F)o2)c2c1CCN(S(=O)(=O)c1ccc(F)cc1)C2
RP-LC retention time: 903 s

SMILES: O=C(Nc1cc(F)c(F)c(F)c1)N1CCc2nc[nH]c2C1
RP-LC retention time: 614 s

SMILES: CCOc1ccc2nc(NC3=NCN(CCCOC)CN3)nc(C)c2c1
RP-LC retention time: 668 s

SMILES: O=C(c1ccccc1)N1C[C@H]2CNC(=O)[C@]23CCCC[C@@H]13
RP-LC retention time: 662 s

SMILES: CCNC(=O)c1cc(C2CC2)[nH]n1
RP-LC retention time: 611 s

SMILES: COc1ccc(NC(=O)Nc2c(-c3ccncc3)[nH]c3ccc(F)cc23)c(OC)c1
RP-LC retention time: 683 s

SMILES: COc1cc(NC(C)=O)c(Cl)cc1C(=O)NCCc1c[nH]c2ccc(C)cc12
RP-LC retention time: 831 s

SMILES: Cc1nn(-c2nc(-c3ccc(F)cc3)cs2)c(C)c1CC(=O)Nc1ccc(F)cc1
RP-LC retention time: 1150 s

SMILES: Cc1cc(C(=O)Nc2ccc3c(c2)CCC(=O)N3)no1
RP-LC retention time: 637 s

SMILES: O=C(Nc1cnn(-c2ncncc2N2CCCC2)c1)c1cccc(C(F)(F)F)c1
RP-LC retention time: 797 s

SMILES: Cn1c(=O)c(C(=O)NCc2ccccc2Cl)nc2cccnc21
RP-LC retention time: 728 s

SMILES: CSc1ccc(CNC(=O)CCc2nnc3c4cc(-c5ccccc5)nn4ccn23)cc1
RP-LC retention time: 780 s

SMILES: Fc1ccc(-c2csc(Nc3cccnc3)n2)cc1
RP-LC retention time: 669 s

SMILES: Cc1ncsc1CN1CCC2(CC1)CC(Cc1ccc(F)cc1)CCO2 (stereo unspecified)
RP-LC retention time: 556 s

SMILES: CC(C)CCNC(=O)C1Cn2cccc2C(=O)N1C (stereo unspecified)
RP-LC retention time: 668 s

SMILES: Cc1ccc(CN2CCC(C3CCN(S(C)(=O)=O)CC3)C2)nc1 (stereo unspecified)
RP-LC retention time: 580 s

SMILES: Cc1ccccc1NS(=O)(=O)c1c[nH]c2ncccc12
RP-LC retention time: 728 s

SMILES: Cn1c(=O)c2cc(C(=O)NCCc3ccncc3)nn2c2ccccc21
RP-LC retention time: 584 s

SMILES: O=C(Nc1ccccc1)Nc1c(-c2ccccc2)nc2ccccn12
RP-LC retention time: 636 s

SMILES: Cc1cccc(CC(=O)NCCSc2ncc(-c3ccccc3)[nH]2)c1
RP-LC retention time: 607 s

SMILES: COc1cc(OC)c(NC(=O)N2CC(c3nc(C(C)C)nn3C)C2)cc1Cl
RP-LC retention time: 695 s

SMILES: COc1ccc(Cl)cc1Nc1ccnc2c1c(=O)n(C)c(=O)n2C
RP-LC retention time: 951 s
